Experimental data as given in article PMC9607644, “Glycoconjugation of Quinoline Derivatives Using the C-6 Position in Sugars as a Strategy for Improving the Selectivity and Cytotoxicity of Functionalized Compounds” (Molecules, 2022).

Tests used:
HCT-116 cells = assay: Clonogenic assay, HCT-116; assay type: cell-based, human; details: IC50 concentration 72 h, then 10 days in fresh medium
Method: (§1) MCF-7 and HCT-116 cells were treated with type A glycoconjugates and their ability to proliferate was observed. […] The formed colonies were stained with crystal violet (Figure 5).
(§2) To determine the number of colonies forming by cells after exposure to the test compounds, a clonogenic assay was performed as reported in the literature. The cells were seeded into 6-well plates at a density of 1 × 10^5 (HCT-116) or 2 × 10^5 (MCF-7, NHDF-Neo) per well (3 mL) and allowed to attach for 24 h under standard conditions with 5% CO2 at 37 °C. The following day, the medium was removed and cells were treated with solutions of test compounds in fresh medium at a dose equal to their IC50 values. Control cells were grown with fresh medium supplemented with 0.5% DMSO. After 72 h of incubation, the cells were collected by trypsinization and then reseeded into new 6-well plates at a density of 1000 cells/well/3 mL. The plates with cells were incubated for 10 days under standard conditions with 5% CO2 at 37 °C. After this time, the medium was removed and the cells were washed with PBS, fixed with ice-cold ethanol (-20 °C) for 3 min, and washed again with PBS. Finally, cells were stained with crystal violet (0.01% in H2O; Sigma-Aldrich, Taufkirchen, Germany) for 20 min. The plates were then washed with H2O and allowed to air-dry.

NHDF-Neo cells = assay: Cell cycle analysis by flow cytometry, NHDF-Neo; assay type: cell-based, human; details: IC50 dose, 24 h
Text: After determining the type of cell death caused by the test compounds, the flow cytometry technique was used to study their influence on potential changes in the course of the cell cycle of the HCT-116, MCF-7, and NHDF-Neo lines. The cell cycle is the sequence of growth and division of cells, both normal and cancerous. This process begins from the resting phase (G0) through the active growth phases (G1, S, G2), leading to mitosis (M) in which the cell’s nucleus divides. […] After this time, cells were harvested and treated with a buffer to lysate the cells and isolate the cell nuclei. Propidium iodide was used to assess the amount of DNA in particular phases of the cell cycle. Histograms of DNA content in cells are presented in the Supplementary Materials (Figure S74).
The cell cycle and the type of cell death induced by the test compounds were measured by using flow cytometry according to the manufacturer’s protocol. The cells were seeded into 6-well plates at a density of 3 × 10^5 (HCT-116) or 4 × 10^5 (MCF-7, NHDF-Neo) per well (3 mL) and allowed to attach for 24 h under standard conditions with 5% CO2 at 37 °C. The following day, the medium was removed and cells were treated with solutions of test compounds in fresh medium at a dose equal to their IC50 values. Control cells were grown with fresh medium supplemented with 0.5% DMSO. After 24 h of incubation, the cells were collected by trypsinization. Then, samples were centrifuged (3 min, 2000 rpm, RT) and washed with PBS, after which the cells were centrifuged again (3 min, 2000 rpm, RT) and the supernatant was carefully removed. The resulting precipitate contained cells, which were used for flow cytometry experiments.
For cell cycle analysis, the cells were suspended in 300 μL of hypotonic buffer (consisting of: sodium citrate dihydrate 1 g/L, propidium iodide (PI) 1 mg/mL, RNAse A 10 mg/mL (EURx, Gdańsk, Poland), Triton X-100 1:9), mixed gently and incubated in the dark at room temperature for 20–30 min. […]

MCF-7 cells = assay: Clonogenic assay, MCF-7; assay type: cell-based, human; details: IC50 concentration 72 h, then 10 days in fresh medium
Method: as §1, §2

ctDNA = assay: Intercalation study, UV-Vis absorption titration with ctDNA; assay type: binding, calf; details: 50 µM glycoconjugate, ctDNA 3 to 300 µM, Tris-HCl pH 7.5, 2 h 37 °C
Method: Due to the steric and electron features, quinoline-based compounds are well-known DNA intercalating agents. Therefore, the antiproliferative action of quinoline-related compounds can be related among others to intercalating between two adjacent base pairs of duplex DNA and inhibiting nucleic acid synthesis. […] The binding of the A-2 and E-2 to ctDNA has been characterized through absorption titration, which is an effective technique for DNA intercalation studies. The experiments were carried out for a constant concentration of glycoconjugates with increasing concentrations of ctDNA.
For the DNA binding studies, all experiments were carried out in molecular biology grade Tris-HCl buffer at pH 7.5 (EURx, Poland). The purity of the calf thymus DNA (ctDNA) (Sigma-Aldrich, St. Louis, MO, USA) was determined by measuring the ratio of UV absorbance at 260 and 280 nm. Here, the ratio was in the range of 1.8–1.9, indicating the DNA was sufficiently free from protein. The concentration of ctDNA was determined from the absorbance at 260 nm and using a molar absorption coefficient ε = 6600 M^−1 cm^−1 [68]. […] The samples were incubated for 2 h at 37 °C with gently shaking and the absorption spectra were measured using a UV–Vis-NIR spectrophotometer JASCO V-570 (Tokyo, Japan) in the range of 200–400 nm.

SMILES	clonogenic potential, HCT-116 (HCT-116 cells)	cell cycle phase distribution in words, NHDF-Neo (NHDF-Neo cells)	clonogenic potential, MCF-7 (MCF-7 cells)	binding to ctDNA, change of UV-Vis absorption spectrum (ctDNA)
CC(=O)OC1O[C@H](Cn2cc(COc3cccc4cccnc34)nn2)[C@@H](OC(C)=O)[C@H](OC(C)=O)[C@H]1OC(C)=O (some centres unmarked) [Compound A-1]	able to decrease the clonogenic potential	slightly decreased the number of cells in the G2/M phase with a simultaneous slight increase in the percentage of cells in the G0/G1 phase	able to decrease the clonogenic potential	–
OC1O[C@H](Cn2cc(COc3cccc4cccnc34)nn2)[C@@H](O)[C@H](O)[C@H]1O (some centres unmarked) [Compound A-2]	able to decrease the clonogenic potential	slightly decreased the number of cells in the G2/M phase with a simultaneous slight increase in the percentage of cells in the G0/G1 phase	able to decrease the clonogenic potential	hypochromic and bathochromic effects
OC[C@H]1O[C@@H](n2cc(COc3cccc4cccnc34)nn2)[C@H](O)[C@@H](O)[C@@H]1O [Compound E-2, reference compound]	–	–	–	hypochromic and bathochromic effects
